According to patent US20050197350A1, “Novel quinoline, tetrahydroquinazoline, and pyrimidine derivatives and methods of treatment related to the use thereof” (TAISHO PHARMACEUTICAL CO., LTD., priority 2003, published 2005):

test system: MCH receptors; test: MCH receptor activity class (method not given); conditions: class by percent of control at 10^-7 M or IC50

Row | SMILES | class
1 | CN(C)c1cc(N[C@H]2CC[C@@H](NC(=O)c3ccc([N+](=O)[O-])cc3F)CC2)nc2ccccc12 [compound 773] | 3 (Class 3 The value of percent of control at 10^−7 M was more than 60% or the value of IC50 was more than 200 nM.)
2 | Cc1cc(C(=O)N[C@H]2CC[C@@H](Nc3cc(N(C)C)c4ccccc4n3)CC2)cc(C)c1[N+](=O)[O-] [compound 774, N-(cis-4-{[4-(dimethylamino)quinolin-2-yl]amino}cyclohexyl)-3,5-dimethyl-4-nitrobenzamide] | 2 (Class 2: The value of percent of control at 10^−7 M was from 40% to 60% or the value of IC′50 was from 50 nM to 200 nM.)
3 | Cc1cc(C)c(C(=O)C(=O)N[C@H]2CC[C@@H](Nc3cc(N(C)C)c4ccccc4n3)CC2)c(C)c1 [compound 775, N-(cis-4-{[4-(dimethylamino)quinolin-2-yl]amino}cyclohexyl)-2-mesityl-2-oxoacetamide] | 2 (Class 2: The value of percent of control at 10^−7 M was from 40% to 60% or the value of IC′50 was from 50 nM to 200 nM.)
4 | CN(C)c1cc(N[C@H]2CC[C@@H](NC(=O)c3cnc4ccccc4c3)CC2)nc2ccccc12 [compound 776] | 3 (Class 3 The value of percent of control at 10^−7 M was more than 60% or the value of IC50 was more than 200 nM.)
5 | CN(C)c1cc(N[C@H]2CC[C@@H](NC(=O)c3ccc4ncsc4c3)CC2)nc2ccccc12 [compound 779] | 3 (Class 3 The value of percent of control at 10^−7 M was more than 60% or the value of IC50 was more than 200 nM.)
6 | CN(C)c1cc(N[C@H]2CC[C@@H](NC(=O)c3cc(Cl)ccc3O)CC2)nc2ccccc12 [compound 780, 5-chloro-N-(cis-4-{[4-(dimethylamino)quinolin-2-yl]amino}cyclohexyl)-2-hydroxybenzamide] | 2 (Class 2: The value of percent of control at 10^−7 M was from 40% to 60% or the value of IC′50 was from 50 nM to 200 nM.)
7 | CSc1ccc(Cl)c(C(=O)N[C@H]2CC[C@@H](Nc3cc(N(C)C)c4ccccc4n3)CC2)c1 [compound 781] | 3 (Class 3 The value of percent of control at 10^−7 M was more than 60% or the value of IC50 was more than 200 nM.)
8 | COc1cccc2cc(C(=O)N[C@H]3CC[C@@H](Nc4cc(N(C)C)c5ccccc5n4)CC3)oc12 [compound 782] | 3 (Class 3 The value of percent of control at 10^−7 M was more than 60% or the value of IC50 was more than 200 nM.)
9 | Cc1cccc(C(=O)N[C@H]2CC[C@@H](Nc3cc(N(C)C)c4ccccc4n3)CC2)c1N [compound 783] | 3 (Class 3 The value of percent of control at 10^−7 M was more than 60% or the value of IC50 was more than 200 nM.)
10 | COc1cc(C(=O)N[C@H]2CC[C@@H](Nc3cc(N(C)C)c4ccccc4n3)CC2)cc(OC)c1O [compound 784] | 3 (Class 3 The value of percent of control at 10^−7 M was more than 60% or the value of IC50 was more than 200 nM.)
11 | CN(C)c1cc(N[C@H]2CC[C@@H](NC(=O)c3ccnc4ccccc34)CC2)nc2ccccc12 [compound 785] | 3 (Class 3 The value of percent of control at 10^−7 M was more than 60% or the value of IC50 was more than 200 nM.)
12 | C=CCSc1ncccc1C(=O)N[C@H]1CC[C@@H](Nc2cc(N(C)C)c3ccccc3n2)CC1 [compound 786] | 3 (Class 3 The value of percent of control at 10^−7 M was more than 60% or the value of IC50 was more than 200 nM.)
13 | CN(C)c1cc(N[C@H]2CC[C@@H](NC(=O)c3cc(C(C)(C)C)c(O)c(C(C)(C)C)c3)CC2)nc2ccccc12 [compound 787] | 3 (Class 3 The value of percent of control at 10^−7 M was more than 60% or the value of IC50 was more than 200 nM.)
14 | CN(C)c1cc(N[C@H]2CC[C@@H](CNC(=O)c3ccc(Br)s3)CC2)nc2ccccc12 [compound 788] | 3 (Class 3 The value of percent of control at 10^−7 M was more than 60% or the value of IC50 was more than 200 nM.)
15 | CN(C)c1cc(N[C@H]2CC[C@@H](CNC(=O)Cc3c(Cl)ccc(Cl)c3Cl)CC2)nc2ccccc12 [compound 789, N-[(cis-4-{[4-(dimethylamino)quinolin-2-yl]amino}cyclohexyl)methyl]-2-(2,3,6-trichlorophenyl)acetamide] | 1 (Class 1: The value of percent of control at 10^−7 M was less than 40% or the value of IC50 was less than 50 nM.)
16 | CN(C)c1cc(N[C@H]2CC[C@@H](CNC(=O)Cc3ccc(F)cc3Cl)CC2)nc2ccccc12 [compound 790] | 3 (Class 3 The value of percent of control at 10^−7 M was more than 60% or the value of IC50 was more than 200 nM.)
17 | CN(C)c1cc(N[C@H]2CC[C@@H](CNC(=O)c3ccc(-c4ccc(Cl)cc4[N+](=O)[O-])o3)CC2)nc2ccccc12 [compound 791] | 3 (Class 3 The value of percent of control at 10^−7 M was more than 60% or the value of IC50 was more than 200 nM.)
18 | CN(C)c1cc(N[C@H]2CC[C@@H](CNC(=O)c3ccc(Cl)s3)CC2)nc2ccccc12 [compound 792] | 3 (Class 3 The value of percent of control at 10^−7 M was more than 60% or the value of IC50 was more than 200 nM.)
19 | CN(C)c1cc(N[C@H]2CC[C@@H](CNC(=O)CCc3ccccc3O)CC2)nc2ccccc12 [compound 794] | 3 (Class 3 The value of percent of control at 10^−7 M was more than 60% or the value of IC50 was more than 200 nM.)

Row | SMILES | class
20 | CN(C)c1cc(N[C@H]2CC[C@@H](CNC(=O)c3ccc(I)o3)CC2)nc2ccccc12 [compound 795, N-[(cis-4-{[4-(dimethylamino)quinolin-2-yl]amino}cyclohexyl)methyl]-5-iodo-2-furamide] | 3 (Class 3 The value of percent of control at 10^−7 M was more than 60% or the value of IC50 was more than 200 nM.)
21 | CN(C)c1cc(N[C@H]2CC[C@@H](CNC(=O)Cc3ccccc3I)CC2)nc2ccccc12 [compound 796] | 3 (Class 3 The value of percent of control at 10^−7 M was more than 60% or the value of IC50 was more than 200 nM.)
22 | CN(C)c1cc(N[C@H]2CC[C@@H](CNC(=O)/C=C/c3cccc([N+](=O)[O-])c3)CC2)nc2ccccc12 [compound 797] | 2 (Class 2: The value of percent of control at 10^−7 M was from 40% to 60% or the value of IC′50 was from 50 nM to 200 nM.)
23 | CN(C)c1cc(N[C@H]2CC[C@@H](CNC(=O)c3ccccc3Cc3ccccc3)CC2)nc2ccccc12 [compound 799] | 3 (Class 3 The value of percent of control at 10^−7 M was more than 60% or the value of IC50 was more than 200 nM.)
24 | CN(C)c1cc(N[C@H]2CC[C@@H](CNC(=O)C(c3ccc(Cl)cc3)c3ccc(Cl)cc3)CC2)nc2ccccc12 [compound 800, 2,2-bis(4-chlorophenyl)-N-[(cis-4-{[4-(dimethylamino)quinolin-2-yl]amino}cyclohexyl)methyl]acetamide] | 3 (Class 3 The value of percent of control at 10^−7 M was more than 60% or the value of IC50 was more than 200 nM.)
25 | Cc1ccc(-c2ccc(C(=O)NC[C@H]3CC[C@@H](Nc4cc(N(C)C)c5ccccc5n4)CC3)o2)c([N+](=O)[O-])c1 [compound 801] | 3 (Class 3 The value of percent of control at 10^−7 M was more than 60% or the value of IC50 was more than 200 nM.)
26 | CN(C)c1cc(N[C@H]2CC[C@@H](CNC(=O)c3ccc([N+](=O)[O-])s3)CC2)nc2ccccc12 [compound 802, N-[(cis-4-{[4-(dimethylamino)quinolin-2-yl]amino}cyclohexyl)methyl]-5-nitrothiophene-2-carboxamide] | 3 (Class 3 The value of percent of control at 10^−7 M was more than 60% or the value of IC50 was more than 200 nM.)
27 | Cc1cc(C(=O)NC[C@H]2CC[C@@H](Nc3cc(N(C)C)c4ccccc4n3)CC2)ccc1[N+](=O)[O-] [compound 803, N-[(cis-4-{[4-(dimethylamino)quinolin-2-yl]amino}cyclohexyl)methyl]-3-methyl-4-nitrobenzamide] | 3 (Class 3 The value of percent of control at 10^−7 M was more than 60% or the value of IC50 was more than 200 nM.)
28 | COc1cc(C(=O)NC[C@H]2CC[C@@H](Nc3cc(N(C)C)c4ccccc4n3)CC2)ccc1[N+](=O)[O-] [compound 804, N-[(cis-4-{[4-(dimethylamino)quinolin-2-yl]amino}cyclohexyl)methyl]-3-methoxy-4-nitrobenzamide] | 3 (Class 3 The value of percent of control at 10^−7 M was more than 60% or the value of IC50 was more than 200 nM.)
29 | CN(C)c1cc(N[C@H]2CC[C@@H](CNC(=O)c3cn(Cc4ccccc4)c4ccccc34)CC2)nc2ccccc12 [compound 805] | 3 (Class 3 The value of percent of control at 10^−7 M was more than 60% or the value of IC50 was more than 200 nM.)
30 | CN(C)c1cc(N[C@H]2CC[C@@H](CNC(=O)CC3=CCCCC3)CC2)nc2ccccc12 [compound 806] | 3 (Class 3 The value of percent of control at 10^−7 M was more than 60% or the value of IC50 was more than 200 nM.)
31 | CN(C)c1cc(N[C@H]2CC[C@@H](CNC(=O)Cc3ccccc3OC(F)(F)F)CC2)nc2ccccc12 [compound 808] | 3 (Class 3 The value of percent of control at 10^−7 M was more than 60% or the value of IC50 was more than 200 nM.)
32 | Cc1cc(C(=O)NC[C@H]2CC[C@@H](Nc3cc(N(C)C)c4ccccc4n3)CC2)cc(C)c1OCc1ccccc1 [compound 809] | 3 (Class 3 The value of percent of control at 10^−7 M was more than 60% or the value of IC50 was more than 200 nM.)
33 | CN(C)c1cc(N[C@H]2CC[C@@H](CNC(=O)C3c4ccccc4Oc4ccccc43)CC2)nc2ccccc12 [compound 810] | 3 (Class 3 The value of percent of control at 10^−7 M was more than 60% or the value of IC50 was more than 200 nM.)
34 | CN(C)c1cc(N[C@H]2CC[C@@H](CNC(=O)Cc3csc4ccccc34)CC2)nc2ccccc12 [compound 811] | 3 (Class 3 The value of percent of control at 10^−7 M was more than 60% or the value of IC50 was more than 200 nM.)
35 | CN(C)c1ccnc(N[C@H]2CC[C@@H](NC(=O)c3ccc(Br)s3)CC2)n1 [compound 812] | 3 (Class 3 The value of percent of control at 10^−7 M was more than 60% or the value of IC50 was more than 200 nM.)
36 | CN(C)c1ccnc(N[C@H]2CC[C@@H](NC(=O)Cc3c(Cl)ccc(Cl)c3Cl)CC2)n1 [compound 813] | 3 (Class 3 The value of percent of control at 10^−7 M was more than 60% or the value of IC50 was more than 200 nM.)
37 | CN(C)c1ccnc(N[C@H]2CC[C@@H](NC(=O)Cc3ccc(F)cc3Cl)CC2)n1 [compound 814] | 3 (Class 3 The value of percent of control at 10^−7 M was more than 60% or the value of IC50 was more than 200 nM.)
